Measurements from PMC5308787, “Isoprenoid-phospholipid conjugates as potential therapeutic agents: Synthesis, characterization and antiproliferative studies” (PLoS ONE, 2017).

Assays:
[1] = system: drug resistant LOVO/DX line vs drug sensitive LoVo line; assay: Resistance index (RI): IC50 LOVO/DX divided by IC50 LoVo; format: cell-based, human; details: for able to overcome the barrier of P-gp-dependent resistance: judged from RI; for Resistance index (RI): RI = IC50 resistant line / IC50 non-resistant line, 0<RI<2 able to overcome drug resistance, 2<RI<10 moderate ability, RI>10 no influence
Text: (§1) The results of antiproliferative activity were given as IC50 values. Using this parameter we calculated also the resistance indexes (RI) dividing the IC50 values of selected compounds estimated for drug resistant cell LOVO/DX line by respective values designated for drug sensitive LoVo line. According to Harker et al. three categories of the cells could be distinguished: (a) the cells are drug-sensitive—if the ratio approaches 0–2; (b) the cells are moderately drug-resistant—if the ratio ranges from 2 to 10; (c) the cells are markedly drug-resistant—if the ratio is higher than 10.

[2] = system: MV4-11 (human biphenotypic B myelomonocytic leukaemia); assay: Antiproliferative MTT assay, 72 h exposure; format: cell-based; details: Homo sapiens, MV4-11, mean ± SD of 3–5 independent experiments
Experimental: (§2) The biological studies were performed in vitro using human cancer cell lines: MV4-11 (human biphenotypic B myelomonocytic leukaemia), A-549 (non-small cell lung cancer), MCF-7 (breast cancer), LoVo (colon cancer), LoVo/DX (colon cancer drug resistant), HepG2 (liver cancer) and BALB/3T3 (normal mice fibroblasts). These lines were obtained from American Type Culture Collection (Rockville, Maryland, U.S.A.). The cell line is being maintained in the Institute of Immunology and Experimental Therapy, Wroclaw, Poland. All cell lines were grown at 37°C with 5% CO2 humidified atmosphere and were cultured in cultured medium according to the method described before.
(§3) Prior to usage, the compounds were dissolved in DMSO or in mixture of 99.8% ethanol and DMSO (1:1) to the concentration of 25 or 50 mM, and subsequently diluted in culture medium to reach the required concentrations (ranging from 5 to 625 μM).
(§4) Twenty-four hours prior to the addition of tested compounds, the cells were plated in 96-well plates (Sarstedt, Germany) at a density of 1 × 10^4 cells per well in 100 μL of culture medium. The assay was performed after 72 h of exposure to varying concentrations of the tested agents. The in vitro cytotoxic effect of tested agents was examined using the MTT (for MV4-11 cells) or SRB assay which were described previously. Each compound in each concentration was tested in triplicate in a single experiment, which was repeated 3–5 times.
as §1

[3] = system: BALB/3T3 (normal mice fibroblasts); assay: Antiproliferative SRB assay, 72 h exposure; format: cell-based; details: Mus musculus, BALB/3T3, mean ± SD of 3–5 experiments, n.a. = no activity in concentration of 5, 25, 125, 625 μM
Experimental: as §2, §3, §4, §1

[4] = system: lung (A549), colon (LoVo) and liver (HepG2) cancer cell lines; assay: Antiproliferative activity, range over several cancer cell lines as stated in text; format: cell-based; details: Homo sapiens, read-out: IC50 against lung (A549), colon (LoVo) and liver (HepG2) cancer cell lines
Experimental: as §2, §3
Twenty-four hours prior to the addition of tested compounds, the cells were plated in 96-well plates (Sarstedt, Germany) at a density of 1 × 10^4 cells per well in 100 μL of culture medium. […]
The results of antiproliferative activity were given as IC50 values. Using this parameter we calculated also the resistance indexes (RI) dividing the IC50 values of selected compounds estimated for drug resistant cell LOVO/DX line by respective values designated for drug sensitive LoVo line. […]

MCF-7 (breast cancer) = assay: Antiproliferative SRB assay, 72 h exposure; format: cell-based, human; details: Homo sapiens, MCF7, mean ± SD of 3–5 experiments, n.a. = no activity in concentration of 5, 25, 125, 625 μM
Experimental: as §2, §3, §4, §1

LoVo (colon cancer) = assay: Antiproliferative SRB assay, 72 h exposure; format: cell-based, human; details: LoVo; for IC50: Homo sapiens, SRB, 72 h, mean ± SD of 3–5 experiments, n.a. = no activity in concentration of 5, 25, 125, 625 μM
Experimental: as §2, §3, §4, §1

[5] = system: LoVo/DX (colon cancer drug resistant); assay: Antiproliferative SRB assay, 72 h exposure; format: cell-based, human; details: Homo sapiens, LoVo/DX, mean ± SD of 3–5 experiments, n.a. = no activity in concentration of 5, 25, 125, 625 μM
Experimental: as §2, §3, §4, §1

HepG2 (liver cancer) = assay: Antiproliferative SRB assay, 72 h exposure; format: cell-based, human; details: Homo sapiens, HepG2, mean ± SD of 3–5 experiments, n.a. = no activity in concentration of 5, 25, 125, 625 μM
Experimental: as §2, §3, §4, §1

[6] = system: A-549 (non-small cell lung cancer); assay: Antiproliferative SRB assay, 72 h exposure; format: cell-based, human; details: Homo sapiens, A549, mean ± SD of 3–5 experiments, n.a. = no activity in concentration of 5, 25, 125, 625 μM
Experimental: as §2, §3, §4, §1

Row | IC50 [2] [µM] | IC50 [4] [µM] | IC50 (MCF-7 (breast cancer)) [µM] | IC50 (LoVo (colon cancer)) [µM] | IC50 [5] [µM] | IC50 (HepG2 (liver cancer)) [µM] | IC50 [6] [µM] | SMILES | able to overcome the barrier of P-gp-dependent resistance [1] | IC50 [3] [µM] | activity against colon cancer cell line, fold lower than cisplatin (LoVo (colon cancer)) [fold] | Resistance index (RI) [1]
1 | 27.8 ± 7.52 | 13.6 to 57.8 | 45 ± 1.4 | 13.6 ± 0.7 | 57.6 ± 0.6 | 53.6 ± 5.1 | 30.4 ± 1.5 | C=CC(C)(CC/C=C(\C)CCC=C(C)C)CC(=O)OC[C@H](COP(=O)([O-])OCC[N+](C)(C)C)OC(=O)CC(C)(C=C)CC/C=C(\C)CCC=C(C)C (stereo partly drawn) [Compound 6b] | exception | 57.8 ± 1.4 | 5 | 
2 | 65.1 ± 12.2 |  | 89.7 ± 11.3 | 54.4 ± 3.2 | 111 ± 19.4 | 134 ± 51 | 75.7 ± 10.6 | CCC/C=C1/C(C)(C)CCCC1(C)CC(=O)O[C@H](COC(=O)CCCCCCCCCCCCCCC)COP(=O)([O-])OCC[N+](C)(C)C (stereo partly drawn) [Compound 7c, (2’R)-1’-palmitoyl-2’-{2-[(3R,2"E)-2"-butylidene-1",3",3"-trimethyl]cyclohexyl}acetyl-sn-glycero-3’-phospocholine + (2’R)-1’-palmitoyl-2’-{2-[(3S,2"E)-2"-butylidene-1",3",3"-trimethyl]cyclohexyl}acetyl-sn-glycero-3’-phospocholine] | exception | 276 ± 25.7 |  | 1.35
3 | 112 ± 39.8 |  | 250 ± 45.2 | 241 ± 15.1 | 280 ± 44.4 | 344 ± 40.9 | 260 ± 33.6 | C=CC(C)(CC/C=C(\C)CCC=C(C)C)CC(=O)OC[C@@H](O)COP(=O)([O-])OCC[N+](C)(C)C (stereo partly drawn) [Compound 8b] |  | 297 ± 18.6 |  | 1.99
